Where two headings read alike, the source gives them in different places.
Columns and labels:
[1] = assay type: physicochemical
Experimental: Distilled water used in the synthesis required preliminary preparation to remove oxygen dissolved therein. To this end, a flow of inert gas (argon or nitrogen) was passed through a flask with distilled water for 30 minutes. 0.84 grams (3 mmol) iron sulphate heptahydrate were dissolved in 12 ml prepared distilled water. To this solution, 0.40 g (3.5 mmol) cystamine hydrochloride dissolved in 8 ml water was added to this solution. Nitrogen monoxide flow prepared according to the technique [Yu. V. Karyakin and I. I. Angeov. Chistiye khimicheskiye veshchestva (Pure chemical substances), Moscow: Khimiya publishing house, 1974, 23] was passed through the prepared solution for 1 to 1.5 hours at ˜40° C. until crystals were formed in the solution. Reaction mixture was then allowed to stand at 6 to 8° C. for 15 to 20 hrs; a formed brown-red fine crystalline precipitate was filtered off and dried in air for 24 hours. Yield was […] (16.5%).
Di-μ-penicillamine-tetranitrosyl di-iron sulphate (Fe2S3N6C10H32O17) (II) was prepared by reacting iron sulphate (II) with D-penicillamine in a ratio 1:3. The reaction was carried out using a standard vacuum line and Shlenk's technology under nitrogen at room temperature. Oxygen was preliminary removed from water using the method of triplicate freezing and pumping off under vacuum. […]

[2] = NO-donor activity, sensor electrode amiNO-700 in water; details: aerobic aqueous solutions; for spontaneous NO generation: 25° C., no chemo-, photo- or enzymatic activation; for duration of NO release: compared with binuclear nitrosyl iron complexes with aromatic thiolyls
Experimental: The sensor electrode “amiNO-700” of the system “inNO Nitric Oxide Measuring System” (Innovative Instruments, Inc., Tampa, Fla., USA) was used to determine NO generated by the complexes I and II in water. NO concentration was recorded for ˜1,600 seconds (with a step of 0.2 seconds) with concentration of NO donor (0.1 μmol). A standard aqueous solution of NaNO2 (100 μmol) to which a mixture of 0.12M KCl and 2 ml 1M H2SO4 in 18 ml water was added was used to calibrate the electrochemical sensor. All the experiments were carried out in aerobic solutions at temperature 25° C. pH of solutions was measured using the membrane pH-meter “HI 8314” (HANNA Instruments, Germany).

[3] = tested on: line K562 human erythroblastic leukemia and A549 non-small cell lung cancer cells; test: Cytotoxicity, MTT-test on human cancer cells in vitro; assay type: cell-based
Experimental: Cells of line K562 human erythroblastic leukemia and A549 non-small cell lung cancer were used as the study object. The cells were grown in the RMPI1640 medium comprising 10% fetal bovine serum at 37° C., 5% CO2 and 100% humidity.
The cytotoxic activity testing was carried out by the standard MTT-test using 96-well plates. Seeding density of cells was 5,000 cells in a well. The cells K562 and A549 were incubated with the complexes I and II at concentrations 1 μM, 10 μM or 100 μM for 72 hours.
MTT-test is based on the capability of dehydrogenases of live cells to reduce unstained MTT-reagent to the blue crystals of formazan crystals soluble in dimethylsulfoxide (DMSO). The optic absorption of stained DMSO solutions was measured on an automated counter. The cytotoxic activity was assessed in percent by the survival of the cells and calculated according to the formula: (mean value of optic absorption in test samples/mean absorption in the control)×100. IC50 was determined by a “dose-effect” curve.

[4] = tested on: line K562 cells of human erythroblast leukemia; test: Apoptotic activity, caspase-3/-7 FLICA (FAM-DEVD-FMK) flow cytometry; assay type: cell-based; details: incubation 75 hours
Experimental: A method for determining activity of caspases is based on the use of fluorochromic inhibitors of caspases (FLICA). These inhibitors are capable of penetrating into a cell while not being cytotoxic. Within the cell FLICA-inhibitor is covalently bound to active caspase.
The freeze-dried reagent FAM-DEVD-FMK for determining caspase-3 and caspase-7 was experimentally used to test apoptotic cells. When FAM-DEVD-FMK is added to a cellular population of cells, it penetrates into each cell wherein covalent binding thereof to a large subunit of an active caspase heterodimer occurs and thus, it inhibits enzymatic activity. The reagent covalently bound to the enzyme remains inside the cell. […]
Upon termination of incubation term, the cells were centrifuged for 5 minutes at 1,200 rpm at room temperature (RT). […] Sample aliquots of induced and non-induced cells were taken, 2 μl reagent propidium iodide (PI) ready for use were added and the mixture was incubated at RT for 10 minutes to stain dead cells.
Fluorescence of all cell specimens was analyzed on a liquid citometer Backton Dikenson Fascaliber using a laser with 488 nm wavelength. […] In a left lower quadrant live cells were determined; in a right lower quadrant positive FLICA cells (FLICA+) were determined; in a left upper quadrant stained PI cells were determined, and in a right upper quadrant stained PI and FLICA+ cells were determined. […]

Substance	stability of product in the absence of inert atmosphere [1]	spontaneous NO generation [2]	duration of NO release [2]	IC50 ([3]; MTT-test, 72 hours, K562 and A549 cells (cell line of the value not stated), read-out: IC50 (cytotoxic activity, cell survival)) [µM]	stability of polycrystals in air [1]	IC50 [3] [µM]	cells in apoptosis [4] [%]	initiation of caspase 3 and 7 activity / induction of apoptosis ([4]; concentration 50 μl)
Di-μ-penicillamine-tetranitrosyl di-iron sulphate [complex II]	stable in the absence of inert atmosphere for a long time	generate NO in aerobic aqueous solutions	prolonged release of NQ	100	–	–	–	–
Di-μ-cystamine tetranitrosyl di-iron sulphate [complex I]	–	generate NO in aerobic aqueous solutions	prolonged release of NQ	–	remain stable in air at room temperature for a rather long time	50	77	exhibited capability of initiating caspase 3 and 7 activity

From patent publication US8067628B2 (priority 2008, dated 2011)
